Literature values, collected in patent US20030125233A1, “Use of urokinase inhibitors for the treatment and/or prevention of pulmonary hypertension and/or cardiac remodelling” (priority 2000, published 2003).

Tests used:
tumor metastasis = settings: Kellen et al. 1988
[1] = tested on: angiogenesis/capillary network formation; settings: Alliegro et al. 1991

In the case of `N=C(N)NC(=O)c1nc(Cl)c(N)nc1N` [amiloride], the “tumor metastasis in vivo” value (tumor metastasis) is given as “inhibit” and the “angiogenesis/capillary network formation in vitro” value [1] is given as “inhibit”.
